Data on one compound can be found in patent publication US20230149383A1, “QUINOLINE COMPOUNDS FOR TREATING LUNG, LIVER, AND KIDNEY DISEASES, DISORDERS, OR CONDITIONS” (Aldeyra Therapeutics, Inc., priority 2020, published 2023).

Series [1] concerns large panel of ligand binding assays, ion channel assays, transporter assays, and enzyme inhibition studies. Briefly: Secondary pharmacology studies (ligand binding, ion channel, transporter, enzyme inhibition panel). The protocol:
I-1 plasma concentrations are projected to have reached at least 10 μM, exceeding reported levels of RASP in humans with inflammatory diseases. The data support the potential of I-1, and RASP inhibition in general, in treating inflammation and fibrosis.

Series [2] relates to delayed rectifier potassium current. Kind of series: In vitro inhibition of the delayed rectifier potassium current. The series is classed as cell-based.
For series [3], the system named is free MDA. Kind of series: Phase 1 trial, plasma biomarkers in healthy volunteers. It is filed as in vivo, human. Conditions: vs placebo.
Series [4] deals with rat NAFLD model. Briefly: 12-week choline deficient high fat diet rat study (NAFLD model). Conditions: for NAS score: 7 week group. It is filed as in vivo. From the text: NAFLD is diagnosed in the US as 3 million new cases each year. NASH is included in the NAFLD diagnosis, as it is the easiest to ascertain in a subject. NAFLD activity score (NAS) is scored as 0-2 not diagnostic, 3-4 ranges from not diagnostic/borderline/positive NASH, and 5-8 diagnostic of NASH; the NAS scoring system includes a composite of […] semi-quantitative features: steatosis (0-3), lobular inflammation (0-2), hepatocellular ballooning (0-2), and fibrosis (0-4). To analyze the effect of compound I-1 on NAFLD, NAS was analyzed in rats treated with vehicle or various doses of compound I-1 (100 mg/kg, 125 mg/kg was compared to escalation 30/60/100 mg/kg and 50/75/100 mg/kg BID, respectively in animals fed a choline deficient, high fat diet for 7 weeks (vehicle vs. 100 mg/kg vs 30/60/100 mg/kg) and 12 weeks (vehicle vs. 125 mg/kg vs 50/75/100 mg/kg). Plasma was collected at 1, 2, 3, 6, 8, 10, and 12 weeks and tested for cytokines and ALT, AST, Triglycerides, Cholesterol, and tBilirubin (measures of liver function). At 12 weeks the livers were collected and gene expression studies, immunohistochemistry, and hydroxyproline.

For series [5], the system named is STAM mouse model (NASH/HCC). Briefly: STAM mouse model (NASH/HCC). It is filed as in vivo. The source says: The STAM™ model is a model that recapitulates the same disease progression as human NASH/HCC. In this model, male C57BL/6 mice aged two days are given a single dose of streptozotocin to reduce insulin secretory capacity. When the mice turn four weeks of age they start a high-fat diet feeding. This model has a background of late type 2 diabetes which progresses into fatty liver, NASH, fibrosis and consequently liver cancer (HCC). Compared to other NASH-HCC model mice, the disease progresses in a relatively short period of time, and liver cancer is developed in 100% of animals at 20 weeks of age. The model is widely used in NASH research, with more than 40 papers and 70 international conferences published using data from the STAM™ model so far. STAM™ model is able to reproduce many of the pathological features of human NASH. For example: ballooning degeneration of cells, a characteristic pathological feature of human NASH; burned-out NASH, in which lipid droplets decrease as fibrosis progresses; progression of fibrosis occurring around the central vein; a mild rise in ALT (a liver injury marker); increase in NASH markers such as CK-18; increase in human HCC markers such as glutamine synthase, glypican-3 and AFP have been observed.
In a STAM mouse model (NASH/HCC), animals at birth are given a low dose of STZ (200 ug) and then at 3 to 4 weeks these animals are fed a high fat diet. In the progression of the animal model, at 5 weeks fatty liver is evident, 7 weeks NASH is evident, 9 weeks fibrosis is evident, and at 10 weeks nodules are evident and necropsy is performed. In this study, three groups vehicle (0.5% methylcellulose) alone, BID (200 mg/kg in vehicle, BID=twice a day), and QID (200 mg/kg in vehicle, QID=[…]), dosing began at 4 weeks and continued to week ten of the animal model.

[6] abbreviates: after high-fat meal on Day 10, 600 mg BID.
[7] abbreviates: plasma, 7 week and 12 week groups, vs vehicle.
Setting [8] is: 200 mg/kg in 0.5% methylcellulose, BID and QID groups, week 4 to 10.

Structures are written as SMILES. “Also recorded” adds a separate entry of the source.

Turning to `CC(C)(O)c1nc2ccccc2cc1N` [I-1], the “risk of off-target effects” value in series [1] was “low risk of off-target effects”. In addition, the “potential to inhibit the delayed rectifier potassium current” value in series [2] was “very low potential”. The “free MDA levels in plasma” value in series [3] (600 mg BID over 10 days) is “decrease in free MDA levels was observed”. In addition, in series [3] (setting [6]), the “levels of HDL” value is “statistically higher” and the “levels of free fatty acids” value is given as “statistically lower”. In series [4] (7 week and 12 week groups), the “liver fibrosis (picrosirius red histopathology)” value is listed as “trended to have reduced” and the “liver inflammation (hematoxylin eosin histopathology)” value is recorded as “trended to have reduced”. Besides, the NAS score result in series [4] (100 mg/kg, vs vehicle) was “statistical significant reduction”. The NAS score result in series [4] (30/60/100 mg/kg escalation) was “reduced”. Further, in series [4] (12 week group, vs vehicle), the MCP expression levels entry is given as “remained similar to vehicle”, the MIP expression levels entry was “reduction” and the Rantes expression levels entry was “remained similar to vehicle”. Further, in series [4] (setting [7]), the cholesterol entry was “trended at lower values than vehicle” and the triglycerides result is listed as “trended at lower values than vehicle”. Also, in series [5] (setting [8]), the hepatic fibrosis result is “significantly reduced; also recorded: significant reduction” and the hepatic triglycerides result is “significantly reduced; also recorded: significant reduction”. Besides, the body weight gain result in series [5] (200 mg/kg in methylcellulose, BID and QID (FIG. 10: QD or BID), vs vehicle) is on record as “statistically significant reduction”.
